What was measured:
Experiment in all cases: CD titration, Hyperquad 2003 fit
[1] = tested on: c-kitG20T (DNA, G4) AGGGAGGGCGCTGGGAGGATGG; conditions: K+ (17 mM K2HPO4/KH2PO4); pH 7.40, 5% DMSO, 20 °C; site 1 of 2, stepwise 1:1; second G4 1.1 × 10^5 M^-1
[2] = tested on: c-myc1245 (DNA, G4) TGAGGGTGGGTTTTTAGGGTGGGGAA; conditions: K+ (17 mM K2HPO4/KH2PO4); pH 7.40, 5% DMSO, 20 °C; conflict: Figure S38 legend prints (5.1 ± 0.2) × 10^4
[3] = tested on: c-mycTGA-de (DNA, G4) GGGTGGGGAGGGTGGGGAA; conditions: K+ (17 mM K2HPO4/KH2PO4); pH 7.40, 5% DMSO, 20 °C; site 1 of 2, stepwise 1:1; second G4 2.8 × 10^2 M^-1

Structure (SMILES): Cn1c2cccc(n2)n(C)c2cccc(n2)n(C)c2cccc(n2)n(C)c2cccc(n2)n(C)c2cccc(n2)n(C)c2cccc1n2
- Ka1 [1]: (9.4 ± 0.4) × 10^4 M^-1
- Ka [2]: (1.3 ± 0.05) × 10^6 M^-1
- Ka [3]: (5.1 ± 0.2) × 10^4 M^-1
